For 20 molecules, IC50 results are on record in US20240376100A1 (Redona Therapeutics, Inc., priority 2021, published 2024).

Where a name gives a salt, the structure may show the parent alone. A value given as a limit tells only on which side of the number the result lay.

The target of the experiment is PAPD5 enzyme (Homo sapiens, UniProt Q8NDF8). Kind of experiment: PAPD5 assay (AMP incorporation onto 3'-terminus of RNA substrate, fluorescence quench). The experiment is classed as biochemical. Particulars: PAPD5 protein 0.3 nM, ATP 50 μM, 30 minutes preincubation, room temperature; read-out: Potency PAPD5 IC50. On the procedure:
The purpose of the PAPD5 assay is to determine compound potency against PAPD5 enzyme through the measurement of IC50. Compound inhibition is measured as a function of AMP incorporation onto the 3′-terminus of an RNA substrate in the presence of active PAPD5, ATP, and inhibitor. The PAPD5 assay was done in a black, non-binding, 384 well plate (Corning #3575). All steps were performed at room temperature. For a typical assay, a 40 ul aliquot of assay buffer (50 mM HEPES pH 7.3, 20 mM KCl, 10 mM MgCl2, 10 mMM DTT, 0.01% Triton X-100, 40 U/ml RNAsin (Promega)) containing PAPD5 protein (final 10 concentration: 0.3 nM) and ATP (final concentration 50 μM) was added to each well. Next, 1 ul of compound in 100% DMSO is transferred from a compound dilution plate in which the compound is serially diluted. The plate was placed on a plate shaker for 30 seconds to produce mixing, then incubated for 30 minutes. Next, 10 ul of a 5× mix of RNA substrate (5′-fluorescein-AUAGAG-3′ (IDT)) and a DNA oligonucleotide that is complementary to the AMP modified RNA product (5′-TCTCTATT-3′-TAMRA, wherein the first two nucleotides are locked nucleic acids (IDT)) was added (final concentrations: 5 nM and 20 nM, respectively). The plate was placed on a plate shaker for 30 seconds to produce mixing then immediately placed in a Biotek Cytation 5 plate reader, and the time-dependent decrease in fluorescein fluorescence resulting from annealing of the TAMRA labeled quenching probe was recorded, using the kinetics mode of the reader (typical run time is 90 minutes). Reaction rates were obtained using linear fits to the early portion of progress curves. IC50 values were calculated using a four-parameter fit with 100% enzyme activity determined from the DMSO control and 0% activity from control samples lacking UTP.
“+” represents an IC50 value that is greater than 50 PM; “++” represents an IC50 value that is greater than 10 μM and equal to or less than 50 μM; “+++” represents an IC50 value that is greater than 1 μM and equal to or less than 10 μM; and “++++” represents an IC50 value that is equal to or less than 1 μM.

PAPD5 enzyme, sequence (Q8NDF8 whole entry): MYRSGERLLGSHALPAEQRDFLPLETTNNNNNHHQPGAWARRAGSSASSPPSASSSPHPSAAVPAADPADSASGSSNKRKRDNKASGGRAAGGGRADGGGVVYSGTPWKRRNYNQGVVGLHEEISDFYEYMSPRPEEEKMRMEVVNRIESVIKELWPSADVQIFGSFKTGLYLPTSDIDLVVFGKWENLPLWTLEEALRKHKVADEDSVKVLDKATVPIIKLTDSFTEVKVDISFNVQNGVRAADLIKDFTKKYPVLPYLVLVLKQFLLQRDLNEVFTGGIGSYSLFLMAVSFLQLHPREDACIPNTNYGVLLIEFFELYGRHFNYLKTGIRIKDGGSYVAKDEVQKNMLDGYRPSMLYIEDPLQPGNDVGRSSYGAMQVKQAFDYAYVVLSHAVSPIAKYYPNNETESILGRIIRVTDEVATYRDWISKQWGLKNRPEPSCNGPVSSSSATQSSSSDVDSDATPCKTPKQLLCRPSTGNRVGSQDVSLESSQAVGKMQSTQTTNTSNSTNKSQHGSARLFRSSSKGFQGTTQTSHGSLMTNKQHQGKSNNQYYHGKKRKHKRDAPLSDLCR

In general, IC50 refers to the concentration that inhibits the measured activity by half. As for `CN(C)C(=O)N1CCC(Cn2cc(C(=O)O)c(=O)c3cc(Cl)c(N4Cc5cccnc5C4)cc32)CC1` [Example 129, 6-chloro-7-(5,7-dihydro-6H-pyrrolo[3,4-b]pyridin-6-yl)-1-((1-(dimethylcarbamoyl)piperidin-4-yl)methyl)-4-oxo-1,4-dihydroquinoline-3-carboxylic acid], the 50% inhibitory concentration (IC50) is ≤ 1000 nM.

In the case of `Cc1cc(N)ncc1-n1cc(C(=O)O)c(=O)c2cc(F)c(N3Cc4cccnc4C3)cc21` [Example 79, 1-(6-amino-4-methylpyridin-3-yl)-7-(5,7-dihydro-6H-pyrrolo[3,4-b]pyridin-6-yl)-6-fluoro-4-oxo-1,4-dihydroquinoline-3-carboxylic acid TFA salt], the concentration for half-maximal inhibition (IC50) was ≤ 1000 nM.

On to `Cc1cc(N)ncc1-n1cc(C(=O)O)c(=O)c2cc(Cl)c(N3CCc4ncccc4C3)nc21` [Example 186, 1-(6-amino-4-methylpyridin-3-yl)-6-chloro-7-(7,8-dihydro-1,6-naphthyridin-6(5H)-yl)-4-oxo-1,4-dihydro-1,8-naphthyridine-3-carboxylic acid], for which the IC50 is ≤ 1000 nM.

Consider `CN(C)C1CN(c2ccc(-n3cc(C(=O)O)c(=O)c4cc(Cl)c(N5Cc6cccnc6C5)nc43)cn2)C1` [Example 22, 6-chloro-7-(5,7-dihydro-6H-pyrrolo[3,4-b]pyridin-6-yl)-1-(6-(3-(dimethylamino)azetidin-1-yl)pyridin-3-yl)-4-oxo-1,4-dihydro-1,8-naphthyridine-3-carboxylic acid], for which the IC50 is ≤ 1000 nM.

On to `Cc1cc(N)ncc1-n1cc(C(=O)O)c(=O)c2cc(Cl)c(-n3ccc(N(C)C)n3)nc21` [Example 162, 1-(6-amino-4-methylpyridin-3-yl)-6-chloro-7-(3-(dimethylamino)-1H-pyrazol-1-yl)-4-oxo-1,4-dihydro-1,8-naphthyridine-3-carboxylic acid], for which the IC50 was ≤ 1000 nM.

On to `N#Cc1cc2c(=O)c(C(=O)O)cn(-c3cnc(N)cn3)c2cc1N1Cc2cccnc2C1` [Example 96, 1-(5-aminopyrazin-2-yl)-6-cyano-7-(5,7-dihydro-6H-pyrrolo[3,4-b]pyridin-6-yl)-4-oxo-1,4-dihydroquinoline-3-carboxylic acid], for which the IC50 is ≤ 1000 nM.

Regarding `COc1cnc(-n2cc(C(=O)O)c(=O)c3cc(Cl)c(N4Cc5cccnc5C4)cc32)cn1` [Example 76, 6-chloro-7-(5,7-dihydro-6H-pyrrolo[3,4-b]pyridin-6-yl)-1-(5-methoxypyrazin-2-yl)-4-oxo-1,4-dihydroquinoline-3-carboxylic acid], the IC50 is ≤ 1000 nM.

For `CC(=O)N1CCC(n2cc(C(=O)O)c(=O)c3cc(Cl)c(N4Cc5cccnc5C4)cc32)CC1` [Example 126, 1-(1-acetylpiperidin-4-yl)-6-chloro-7-(5,7-dihydro-6H-pyrrolo[3,4-b]pyridin-6-yl)-4-oxo-1,4-dihydroquinoline-3-carboxylic acid], the half-maximal inhibitory concentration (IC50) was ≤ 1000 nM.

As for `CCCc1cc(N)ncc1-n1cc(C(=O)O)c(=O)c2cc(Cl)c(N3Cc4cccnc4C3)cc21` [Example 199, 1-(6-amino-4-propylpyridin-3-yl)-6-chloro-7-(5,7-dihydro-6H-pyrrolo[3,4-b]pyridin-6-yl)-4-oxo-1,4-dihydroquinoline-3-carboxylic acid], the IC50 is ≤ 1000 nM.

Turning to `N#Cc1cc2c(=O)c(C(=O)O)cn(-c3cccnc3)c2cc1N1Cc2cccc(F)c2C1` [Example 53, 6-cyano-7-(4-fluoroisoindolin-2-yl)-4-oxo-1-(pyridin-3-yl)-1,4-dihydroquinoline-3-carboxylic acid], the IC50 was ≤ 1000 nM.

For `COc1ncccc1Cn1cc(C(=O)O)c(=O)c2cc(Cl)c(N3Cc4cccnc4C3)nc21` [Example 71, 6-chloro-7-(5,7-dihydro-6H-pyrrolo[3,4-b]pyridin-6-yl)-1-((2-methoxypyridin-3-yl)methyl)-4-oxo-1,4-dihydro-1,8-naphthyridine-3-carboxylic acid], the half-inhibitory concentration (IC50) is ≤ 1000 nM.

As for `CC(=O)N1CCC(Cn2cc(C(=O)O)c(=O)c3cc(Cl)c(N4Cc5cccnc5C4)cc32)CC1` [Example 122, 1-((1-acetylpiperidin-4-yl)methyl)-6-chloro-7-(5,7-dihydro-6H-pyrrolo[3,4-b]pyridin-6-yl)-4-oxo-1,4-dihydroquinoline-3-carboxylic acid], the 50% inhibitory concentration (IC50) was ≤ 1000 nM.

For `O=C(O)c1cn(-c2ccc(O)cc2F)c2cc(N3Cc4ccccc4C3)c(Cl)cc2c1=O` [Example 30, 6-chloro-1-(2-fluoro-4-hydroxyphenyl)-7-(isoindolin-2-yl)-4-oxo-1,4-dihydroquinoline-3-carboxylic acid], the 50% inhibitory concentration (IC50) was ≤ 1000 nM.

For `Cc1cc(N(C)CCN2CCCCC2)ncc1-n1cc(C(=O)O)c(=O)c2cc(Cl)c(N3Cc4cccnc4C3)nc21` [Example 177, 6-chloro-7-(5,7-dihydro-6H-pyrrolo[3,4-b]pyridin-6-yl)-1-(4-methyl-6-(methyl(2-(piperidin-1-yl)ethyl)amino)pyridin-3-yl)-4-oxo-1,4-dihydro-1,8-naphthyridine-3-carboxylic acid], the IC50 is ≤ 1000 nM.

Turning to `O=C(O)c1cn(Cc2ccccn2)c2nc(N3Cc4cccnc4C3)c(Cl)cc2c1=O` [Example 65, 6-chloro-7-(5,7-dihydro-6H-pyrrolo[3,4-b]pyridin-6-yl)-4-oxo-1-(pyridin-2-ylmethyl)-1,4-dihydro-1,8-naphthyridine-3-carboxylic acid], the 50% inhibitory concentration (IC50) was ≤ 1000 nM.

As for `N#Cc1cc2c(=O)c(C(=O)O)cn(-c3ccc(O)c(F)c3)c2cc1N1Cc2cccnc2C1` [Example 37, 6-cyano-7-(5,7-dihydro-6H-pyrrolo[3,4-b]pyridin-6-yl)-1-(3-fluoro-4-hydroxyphenyl)-4-oxo-1,4-dihydroquinoline-3-carboxylic acid], the concentration for half-maximal inhibition (IC50) is ≤ 1000 nM.

Regarding `COCCN(C)c1cc(C)c(-n2cc(C(=O)O)c(=O)c3cc(Cl)c(N4Cc5cccnc5C4)nc32)cn1` [Example 143, 6-chloro-7-(5,7-dihydro-6H-pyrrolo[3,4-b]pyridin-6-yl)-1-(6-((2-methoxyethyl)(methyl)amino)-4-methylpyridin-3-yl)-4-oxo-1,4-dihydro-1,8-naphthyridine-3-carboxylic acid], the IC50 is ≤ 1000 nM.

On to `COc1ccc(-c2ccn(-c3cc4c(cc3F)c(=O)c(C(=O)O)cn4-c3ccc(O)cc3F)n2)cc1` [Example 39, 6-fluoro-1-(2-fluoro-4-hydroxyphenyl)-7-(3-(4-methoxyphenyl)-1H-pyrazol-1-yl)-4-oxo-1,4-dihydroquinoline-3-carboxylic acid], for which the IC50 was ≤ 1000 nM.

`Cc1cc(NC(=O)OC(C)(C)C)ncc1-n1cc(C(=O)O)c(=O)c2ccc(N3Cc4cccnc4C3)cc21` [Example 136, 1-(6-((tert-butoxycarbonyl)amino)-4-methylpyridin-3-yl)-7-(5,7-dihydro-6H-pyrrolo[3,4-b]pyridin-6-yl)-4-oxo-1,4-dihydroquinoline-3-carboxylic acid]: the IC50 is ≤ 1000 nM.

Consider `COc1ccc(-n2cc(C(=O)O)c(=O)c3cc(C#N)c(N4Cc5cccnc5C4)cc32)cn1` [Example 55, 6-cyano-7-(5,7-dihydro-6H-pyrrolo[3,4-b]pyridin-6-yl)-1-(6-methoxypyridin-3-yl)-4-oxo-1,4-dihydroquinoline-3-carboxylic acid], for which the half-maximal inhibitory concentration (IC50) was ≤ 1000 nM.
